Assay type in all cases: cell-based
In series [1] the test system is human red blood cells (hRBC). Description: Hemolysis. Conditions: red cells of human, 1 h, 200. A digest of the protocol: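 Percent lysis of human red cells was derived from OD540 of the supernatant, referenced to 2% Triton X-100, after a 1 h, 37° C incubation of 20% (v/v) cells with 200 μg/mL peptide.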
Series [2] concerns Pseudomonas aeruginosa ATCC 27853. Conditions: ATCC 27853. A digest of the protocol:
(§1)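 Broth microdilution per CLSI; MH-II (cation-adjusted) + 0.002% P-80 final; ~10^6 CFU/mL inoculum; 2-fold peptide series; 35° C, 18-20 h; MIC = no visible growth, μg/mL.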

In series [3] the test system is Acinetobacter baumannii DSM 30008. Conditions: DSM 30008. A digest of the protocol: as §1
Series [4] has as its system Klebsiella pneumoniae SSI #3010. Conditions: SSI #3010. The method in brief: as §1
The test system of series [5] is Acinetobacter baumannii 872842. Conditions: 872842. The method in brief:
as §1

Series [6] concerns Escherichia coli ATCC 25922. Conditions: ATCC 25922. A digest of the protocol: as §1
Series [7] concerns Klebsiella pneumoniae 968733. Conditions: 968733. The method in brief: as §1
The subject of series [8] is Enterobacter cloacae 848840. The note with it: 848840. A digest of the protocol: as §1
The test system of a further series is Escherichia coli 926415. Conditions: 926415. A digest of the protocol:
as §1

We go through seven molecules from patent US11629171B2, “Beta-hairpin peptidomimetics” (POLYPHOR AG, priority 2017, dated 2023).

A word on the MIC: it is the smallest concentration in the dilution series that meets the test's criterion for growth inhibition. Lower therefore signals inhibition by little substance.

Each structure is given as a SMILES string. Values after ≈ are worked out from the molar mass of the structure shown. Where a SMILES comes first, the peptide text is derived from it. Bridges are numbered along the chain shown (N, C = ends). Roman numbers before positions name the chains, in order. [ ]: non-standard residue; d: D form. Tle = CC(C)(C)[C@H](N)C(=O)O; NMeV = CN[C@H](C(=O)O)C(C)C; dDab = NCC[C@@H](N)C(=O)O; hSer = N[C@@H](CCO)C(=O)O; Dab = NCC[C@H](N)C(=O)O

Regarding `CC(=O)N[C@H](C(=O)N[C@H]1CSSC[C@@H](C(=O)N[C@@H](CO)C(N)=O)NC(=O)[C@H](C(C)(C)C)NC(=O)[C@H](CO)NC(=O)[C@H](Cc2c[nH]c3ccccc23)NC(=O)[C@H]([C@@H](C)O)NC(=O)[C@@H](CCN)NC(=O)[C@H](CCC(=O)N[C@@H](CCN)C(=O)N[C@H](C(=O)N[C@@H](CCN)C(=O)N[C@H]2CCNC(=O)[C@H]([C@@H](C)O)NC(=O)[C@H](CCN)NC(=O)[C@H](CCN)NC(=O)[C@H](CC(C)C)NC(=O)[C@@H](CC(C)C)NC(=O)[C@H](CCN)NC2=O)[C@@H](C)O)NC(=O)[C@H](CO)NC(=O)[C@H](Cc2ccc(O)cc2)NC1=O)C(C)C` [Ex. 46] (I: Ac-VCYSE[dDab]TWS[Tle]CS-NH2 / II: [Dab]T[Dab][Dab][Dab][dL]L[Dab][Dab]T; disulfide I:2-I:11; amide I:5-II:N; lactam II:4-II:C), in series [1], the “Hemolysis at 200 μg/mL” value came out at 2%. Also, the MIC turned out to be 0.125 µg/mL (≈ 0.0515 µM) in series [2]; 0.0625 µg/mL (≈ 0.0257 µM) in series [3]; 0.125 µg/mL (≈ 0.0515 µM) in series [4]; 0.125 µg/mL (≈ 0.0515 µM) in series [5]; 0.0625 µg/mL (≈ 0.0257 µM) in series [6]; 0.5 µg/mL (≈ 0.206 µM) in series [7]. In addition, the MIC (in [8]; in the series with Escherichia coli 926415) was 0.125 µg/mL (≈ 0.0515 µM) each time.
In the case of `CC(C)C[C@@H]1NC(=O)[C@@H](CC(C)C)NC(=O)[C@H](CCN)NC(=O)[C@@H](NC(=O)[C@H](CCN)NC(=O)[C@@H](NC(=O)[C@H](CCN)NC(=O)CC[C@@H]2NC(=O)[C@H](CCN)NC(=O)[C@H](Cc3ccc(O)cc3)NC(=O)[C@@H](NC(=O)[C@@H](N)C(C)C)CSSC[C@@H](C(=O)N[C@@H](CO)C(N)=O)NC(=O)[C@H](C(C)(C)C)NC(=O)[C@H](CO)NC(=O)[C@H](Cc3c[nH]c4ccccc34)NC(=O)[C@H]([C@@H](C)O)NC(=O)[C@@H](CCN)NC2=O)[C@@H](C)O)CCNC(=O)[C@H]([C@@H](C)O)NC(=O)[C@H](CCN)NC(=O)[C@H](CCN)NC1=O` [Ex. 47] (I: H-VCY[Dab]E[dDab]TWS[Tle]CS-NH2 / II: [Dab]T[Dab][Dab][Dab][dL]L[Dab][Dab]T; disulfide I:2-I:11; amide I:5-II:N; lactam II:4-II:C), the “Hemolysis at 200 μg/mL” value in series [1] was <1%. Besides, the MIC was 0.125 µg/mL (≈ 0.0521 µM) in series [2]; 0.125 µg/mL (≈ 0.0521 µM) in series [3]; 0.125 µg/mL (≈ 0.0521 µM) in series [4]; 0.125 µg/mL (≈ 0.0521 µM) in [5]; 0.0625 µg/mL (≈ 0.0261 µM) in series [6]; 1 µg/mL (≈ 0.417 µM) in series [7]. For the same molecule, the minimal inhibitory concentration (MIC) was found to be 4 µg/mL (≈ 1.67 µM) in [8] and 0.25 µg/mL (≈ 0.104 µM) against Escherichia coli 926415.
Consider `CC(C)C[C@@H]1NC(=O)[C@@H](CC(C)C)NC(=O)[C@H](CCN)NC(=O)[C@@H](NC(=O)[C@H](CCN)NC(=O)[C@@H](NC(=O)[C@H](CCN)NC(=O)CC[C@@H]2NC(=O)[C@H](CCN)NC(=O)[C@H](Cc3ccc(O)cc3)NC(=O)[C@@H](NC(=O)[C@@H](N)C(C)C)CSSC[C@@H](C(=O)N[C@@H](CO)C(N)=O)NC(=O)[C@H](C(C)C)NC(=O)[C@H](CCO)NC(=O)[C@H](Cc3c[nH]c4ccccc34)NC(=O)[C@H](CCO)NC(=O)[C@@H](CCN)NC2=O)[C@@H](C)O)CCNC(=O)[C@H]([C@@H](C)O)NC(=O)[C@H](CCN)NC(=O)[C@H](CCN)NC1=O` [Ex. 48] (I: H-VCY[Dab]E[dDab][hSer]W[hSer]VCS-NH2 / II: [Dab]T[Dab][Dab][Dab][dL]L[Dab][Dab]T; disulfide I:2-I:11; amide I:5-II:N; lactam II:4-II:C), for which the “Hemolysis at 200 μg/mL” value in series [1] is <1%. Further, the MIC in [2] came out at 0.125 µg/mL (≈ 0.0521 µM); in series [3], 0.25 µg/mL (≈ 0.104 µM); in series [4], 0.25 µg/mL (≈ 0.104 µM); in [5], 0.5 µg/mL (≈ 0.208 µM); in series [6], 0.25 µg/mL (≈ 0.104 µM); in series [7], 8 µg/mL (≈ 3.33 µM). For the same molecule, the values for the MIC (in [8]; in the series with Escherichia coli 926415) were 4 µg/mL (≈ 1.67 µM) and 1 µg/mL (≈ 0.417 µM), respectively.
For the molecule `CC(=O)N[C@H](C(=O)N[C@H]1CSSC[C@@H](C(=O)N[C@@H](CO)C(N)=O)NC(=O)[C@H](C(C)(C)C)NC(=O)[C@H](CCO)NC(=O)[C@H](Cc2c[nH]c3ccccc23)NC(=O)[C@H](CCO)NC(=O)[C@@H](CCN)NC(=O)[C@H](CCC(=O)N[C@@H](CCN)C(=O)N[C@H](C(=O)N[C@@H](CCN)C(=O)N[C@H]2CCNC(=O)[C@H]([C@@H](C)O)NC(=O)[C@H](CCN)NC(=O)[C@H](CCN)NC(=O)[C@H](CC(C)C)NC(=O)[C@@H](CC(C)C)NC(=O)[C@H](CCN)NC2=O)[C@@H](C)O)NC(=O)[C@H](CCN)NC(=O)[C@H](Cc2ccc(O)cc2)NC1=O)C(C)C` [Ex. 49] (I: Ac-VCY[Dab]E[dDab][hSer]W[hSer][Tle]CS-NH2 / II: [Dab]T[Dab][Dab][Dab][dL]L[Dab][Dab]T; disulfide I:2-I:11; amide I:5-II:N; lactam II:4-II:C), in series [1], the “Hemolysis at 200 μg/mL” value is listed as <1%. For the same molecule, the MIC came out at 0.125 µg/mL (≈ 0.0509 µM) in [2]; 0.0625 µg/mL (≈ 0.0255 µM) in series [3]; 0.125 µg/mL (≈ 0.0509 µM) in series [4]; 0.25 µg/mL (≈ 0.102 µM) in [5]; 0.125 µg/mL (≈ 0.0509 µM) in [6]; 0.125 µg/mL (≈ 0.0509 µM) in series [7]. Besides, the MIC (in series [8]; with Escherichia coli 926415) was 0.25 µg/mL (≈ 0.102 µM) each time.
In the case of `CN[C@H](C(=O)N[C@H]1CSSC[C@@H](C(=O)N[C@@H](CO)C(N)=O)NC(=O)[C@H](C(C)C)NC(=O)[C@H](CCO)NC(=O)[C@H](Cc2c[nH]c3ccccc23)NC(=O)[C@H](CCO)NC(=O)[C@@H](CCN)NC(=O)[C@H](CCC(=O)N[C@@H](CCN)C(=O)N[C@H](C(=O)N[C@@H](CCN)C(=O)N[C@H]2CCNC(=O)[C@H]([C@@H](C)O)NC(=O)[C@H](CCN)NC(=O)[C@H](CCN)NC(=O)[C@H](CC(C)C)NC(=O)[C@@H](CC(C)C)NC(=O)[C@H](CCN)NC2=O)[C@@H](C)O)NC(=O)[C@H](CCN)NC(=O)[C@H](Cc2ccc(O)cc2)NC1=O)C(C)C` [Ex. 50] (I: H-[NMeV]CY[Dab]E[dDab][hSer]W[hSer]VCS-NH2 / II: [Dab]T[Dab][Dab][Dab][dL]L[Dab][Dab]T; disulfide I:2-I:11; amide I:5-II:N; lactam II:4-II:C), the “Hemolysis at 200 μg/mL” value in [1] was <1%. Also, the MIC in series [2] was found to be 0.25 µg/mL (≈ 0.104 µM); in [3], 0.25 µg/mL (≈ 0.104 µM); in series [4], 0.125 µg/mL (≈ 0.0518 µM); in series [5], 1 µg/mL (≈ 0.414 µM); in series [6] it was 0.125 µg/mL (≈ 0.0518 µM); in [7], 4 µg/mL (≈ 1.66 µM). Further, the MIC in series [8] is 8 µg/mL (≈ 3.32 µM); in the series with Escherichia coli 926415, 0.5 µg/mL (≈ 0.207 µM).
Turning to `CN[C@H](C(=O)N[C@H]1CSSC[C@@H](C(=O)N[C@@H](CO)C(N)=O)NC(=O)[C@H](C(C)(C)C)NC(=O)[C@H](CCO)NC(=O)[C@H](Cc2c[nH]c3ccccc23)NC(=O)[C@H](CCO)NC(=O)[C@@H](CCN)NC(=O)[C@H](CCC(=O)N[C@@H](CCN)C(=O)N[C@H](C(=O)N[C@@H](CCN)C(=O)N[C@H]2CCNC(=O)[C@H]([C@@H](C)O)NC(=O)[C@H](CCN)NC(=O)[C@H](CCN)NC(=O)[C@H](CC(C)C)NC(=O)[C@@H](CC(C)C)NC(=O)[C@H](CCN)NC2=O)[C@@H](C)O)NC(=O)[C@H](CCN)NC(=O)[C@H](Cc2ccc(O)cc2)NC1=O)C(C)C` [Ex. 51] (I: H-[NMeV]CY[Dab]E[dDab][hSer]W[hSer][Tle]CS-NH2 / II: [Dab]T[Dab][Dab][Dab][dL]L[Dab][Dab]T; disulfide I:2-I:11; amide I:5-II:N; lactam II:4-II:C), in series [1], the “Hemolysis at 200 μg/mL” value is <1%. The MIC stood at 0.125 µg/mL (≈ 0.0515 µM) in series [2]; 0.5 µg/mL (≈ 0.206 µM) in series [3]; 0.125 µg/mL (≈ 0.0515 µM) in series [4]; 0.25 µg/mL (≈ 0.103 µM) in series [5]; 0.25 µg/mL (≈ 0.103 µM) in series [6]; 1 µg/mL (≈ 0.412 µM) in series [7]. The MIC (in series [8]; in the series with Escherichia coli 926415) was 0.5 µg/mL (≈ 0.206 µM) throughout.
Turning to `CC(=O)N[C@H](C(=O)N[C@H]1CSSC[C@@H](C(=O)N[C@@H](CO)C(=O)O)NC(=O)[C@H](C(C)(C)C)NC(=O)[C@H](CO)NC(=O)[C@H](Cc2c[nH]c3ccccc23)NC(=O)[C@H]([C@@H](C)O)NC(=O)[C@@H](CCN)NC(=O)[C@H](CCC(=O)N[C@@H](CCN)C(=O)N[C@H](C(=O)N[C@@H](CCN)C(=O)N[C@H]2CCNC(=O)[C@H]([C@@H](C)O)NC(=O)[C@H](CCN)NC(=O)[C@H](CCN)NC(=O)[C@H](CC(C)C)NC(=O)[C@@H](CC(C)C)NC(=O)[C@H](CCN)NC2=O)[C@@H](C)O)NC(=O)[C@H](CCN)NC(=O)[C@H](Cc2ccc(O)cc2)NC1=O)C(C)C` [Ex. 52] (I: Ac-VCY[Dab]E[dDab]TWS[Tle]CS-OH / II: [Dab]T[Dab][Dab][Dab][dL]L[Dab][Dab]T; disulfide I:2-I:11; amide I:5-II:N; lactam II:4-II:C), in series [1], the “Hemolysis at 200 μg/mL” value is reported as <1%. For the same molecule, the MIC in series [2] is 0.25 µg/mL (≈ 0.102 µM); in [3] it was 1 µg/mL (≈ 0.41 µM); in series [4] it was 0.25 µg/mL (≈ 0.102 µM); in series [5], 2 µg/mL (≈ 0.819 µM); in [6], 0.25 µg/mL (≈ 0.102 µM); in [7], 4 µg/mL (≈ 1.64 µM). Also, the MIC (in series [8]; against Escherichia coli 926415) was 2 µg/mL (≈ 0.819 µM) in each case.
